Test results published in US9258954B2, “Plant having enhanced resistance to environmental stress” (RIKEN, priority 2011, dated 2016).

Tested on: Arabidopsis thaliana L. wild strain (Col-0)
Details: 10 mM aqueous acetic acid applied to soil in pot for 9 days; compared to plant without treatment and plant treated with 0.5 mM acetic acid; FIG. 19
Description: hda6 mutant strain (axe 1-5 or sil1) and a parent strain or wild strain thereof were grown in pots at 22° C. under the conditions of 16 hours in the light and 8 hours in the dark for 3 weeks. Thereafter, water supply was terminated and the cultivation was continued at 22° C. and a humidity of 40% under the conditions of 16 hours in the light and 8 hours in the dark for about 2 weeks. In this manner, drought stress was gently given to the strains. After water was supplied again, the strains were grown at 22° C. under the conditions of 16 hours in the light and 8 hours in the dark for 5 days. The number of plants which recovered the growth was counted to determine a survival rate. The experiment was repeated three times using 40 plants per strain per experiment to calculate an average and standard deviation for the survival rate.

## CC(=O)O [acetic acid]
  drought-stress resistance (survival after drought-stress resistance test): remarkably strong drought-stress resistance
